# Measured values reported in PMC11610403 (Journal of thrombosis and haemostasis : JTH, 2024).
# Columns and labels:
# [1] = tested on: vascular leakage; conditions: given in vivo to mice in the absence of APC or any P1 peptide; cited from earlier work
# [2] = tested on: caspase-1 activity in activated THP-1 cells; experiment: Caspase-1 activity assay in stimulated THP-1 cells; type: cell-based, human; conditions: P3 peptide in the presence of P1-47-66 (1.0 nM), Figure 2A
Substance,vascular leakage in mice [1],synergism with P1-47-66 for reducing caspase-1 activity [2]
"P3-42-65: PAR3-derived peptide comprising residues 42-65 (GAPPNSFEEFPFSALEGWTGATIT; UniProt O00254 42-65, looked up, fragment)",reduce vascular leakage,reduces caspase-1 activity synergistically
"P3-51-65: PAR3-derived peptide, residues 51-65 (FPFSALEGWTGATIT; UniProt O00254 51-65, looked up, fragment)",,similarly showed synergism
